Entries after “also recorded” stand apart in the source; their conditions may differ.

Assay [1] concerns cleavage of Caspase 3, 7 and PARP. Kind of assay: Western blot, induction of apoptosis. It is filed as cell-based, human. The settings on record: all cell lines (SEM shown exemplarily); 48 h after addition. The method, then:
(A) Cells were treated with PDA-66 for up to 72 h and stained with Annexin V FITC and Propidium iodide (PI). Rates of early apoptotic (FITC^+, PI^−) and late apoptotic and necrotic (FITC^+, PI^+) cells were measured by flow cytometry. Significant induction of apoptosis could be observed in all cell lines after 48 h of incubation as well as tendential induction of necrosis at both points of time. […] (B) Induction of apoptosis was confirmed by Western blot. Cells were treated with different concentrations of PDA-66 and total cell lysates (25 μg) were analyzed by Western blot to detect cleavage of Caspase 3, 7 and PARP. GAPDH was used as loading control.
Additionally, the effect of PDA-66 on apoptosis was determined by and western blot. For protein extraction cells were washed twice in PBS and lysed with RIPA buffer (50 mM Tris HCl pH 7.4; 150 mM NaCl; 0.1% SDS and 1% NP40) including protease and phosphatase inhibitors (Roche Applied Science, Mannheim, Germany). Samples were incubated for 20 min at 4° C. and frozen at −20° C. Cell extracts were thawed and centrifuged at 12000 g for 10 min at 4° C. Total protein concentration of supernatants was determined using Bio-Rad Protein Assay (Bio-Rad, München, Germany).
Equal amounts of protein samples were separated by SDS-polyacrylamid gel (8% or 15%) electrophoresis and transferred onto a PVDF membrane (Amersham Biosciences, Buckinghamshire, UK). […]
A general note: A western blot detects proteins with antibodies after separation by electrophoresis.

Assay [2] concerns RS4;11 cells. In words: Metabolic activity, WST-1 assay. It is filed as cell-based, human. The conditions noted are these: 0.5 μM PDA-66, 72 h, mean±SD. The procedure: (§1) The human B-ALL cell lines SEM, RS4;11 and the human T-ALL cell lines Jurkat and Molt-4 were purchased from DSMZ (Germany) and cultured according to manufacturer's protocol. The corresponding medium was supplemented with 10% heat-inactivated fetal bovine serum (PAA, Pasching, Austria) and 1% penicillin and streptomycin (Biochrom AG, Berlin, Germany). The Molt-4 cells were cultured with medium supplemented with 20% heat-inactivated fetal bovine serum. All cells were maintained at 37° C. in 5% CO2. Cells (5×10^5/well) were seeded in 24 well plates (Nunc, Langenselbold, Germany) and incubated for up to 72 h with PDA-66. Treated cells were harvested after 4, 24, 48 and 72 h and used for further analyses.
(§2) Cell counts were determined using the trypan blue staining. Metabolic activity was analyzed by using tetrazolium compound WST-1 (Roche, Mannheim, Germany). In brief, triplicates of cells (5×10^4/well) were seeded in 96 well plates, treated with PDA-66 and incubated with 15 μl WST-1 for up to 4 h. The mitochondrial dehydrogenases reduce WST-1 to soluble formazan and cause a change of color, which correlates with the amount of metabolically active cells. Absorbance at 450 nm and a reference wavelength at 620 nm were determined by an ELISA Reader (Anthos, Krefeld, Germany). The absorbance of culture medium with supplemented WST-1 in the absence of cells was used as background control.
(§3) The influence of PDA-66 on proliferation in ALL cell lines SEM, RS4;11, Jurkat and Molt-4 was analyzed by incubation with different concentrations of the drug (0.001 μM to 10 μM). Metabolic activity was determined using WST-1 assay. […] Results are summarized in FIG. 2, whereby the individual nine bars for each set of experiments represent, from left to right, DMSO, 0.001 μM, 0.01 μM, 0.1 μM, 0.25 μM, 0.5 μM, 1.0 μM, 5 μM and 10 μM. After 48 h of incubation an inhibition of proliferation could be observed, but was more distinct after 72 h.
A general note: Tetrazolium dyes change colour on reduction, which living cells bring about.

In assay [3] the test system is Jurkat cells. In words: Metabolic activity, WST-1 assay. It is filed as cell-based, human. The procedure:
as §1, §2, §3

Assay [4] has as its system SEM cells. Kind of assay: Metabolic activity, WST-1 assay. The assay is classed as cell-based, human. The procedure:
as §1, §2, §3

The test system of assay [5] is Molt-4 cells. In words: Metabolic activity, WST-1 assay. The settings on record: 0.5 μM PDA-66, 72 h, mean±SD. The assay is classed as cell-based, human. The method, then:
as §1, §2, §3

In assay [6] the target is T1, recombinant human GSK3β (Homo sapiens, UniProt P49841).
T1 construct: purchased Biomol, Hamburg, Germany
T1 sequence (P49841 whole entry): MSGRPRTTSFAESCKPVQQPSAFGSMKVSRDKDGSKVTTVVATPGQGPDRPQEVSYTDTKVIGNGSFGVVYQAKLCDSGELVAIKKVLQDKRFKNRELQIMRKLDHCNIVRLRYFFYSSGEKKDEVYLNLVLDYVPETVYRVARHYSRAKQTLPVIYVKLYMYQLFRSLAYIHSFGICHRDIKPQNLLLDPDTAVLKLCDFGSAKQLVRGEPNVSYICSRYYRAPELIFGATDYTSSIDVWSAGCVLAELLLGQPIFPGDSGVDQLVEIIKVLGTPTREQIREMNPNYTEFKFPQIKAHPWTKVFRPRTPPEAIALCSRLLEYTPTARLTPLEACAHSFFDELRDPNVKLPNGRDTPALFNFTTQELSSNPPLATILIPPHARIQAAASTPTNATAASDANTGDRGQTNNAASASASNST
Kind of assay: GSK3β kinase activity assay (Kinase-Glo luminescence). It is filed as biochemical. The procedure: The kinase activity assay was performed as previously described by Schmole et. al., 2010 (Schmole et al., 2010, Novel indolylmaleimide acts as GSK-3beta inhibitor in human neural progenitor cells. Bioorganic medicinal chemistry, 18, 6785-95). Briefly, recombinant human GSK3β (Biomol, Hamburg, Germany) was incubated with its substrate phospho glycogen synthase peptide 2 (pGS2) (Millipore, Billerica, USA), ATP (Cell Signaling, Frankfurt am Main, Germany) and different concentrations of PDA-66 for 30 min at 30° C. After addition of Kinase-Glo (Promega, Mannheim, Germany) and 10 min of incubation at room temperature the luminescence signal was measured with a Glomax 96 microplate reader (Promega). More specifically, recombinant human GSK3β was incubated with pGS2, ATP and different concentrations of PDA-66. […] In each experiment the concentrations of PDA-66 and the control were tested with 8 replicates. * Significant treatment effect vs. DMSO control, α=0.05.
The effect of PDA-66 on the enzyme activity of GSK3β was determined by incubation of the enzyme with a specific substrate, PDA-66 and ATP. With growing inhibitory effect there is more ATP present after the incubation. In a second step remaining ATP is converted to a luminescence signal, which is inversely proportional to the enzyme activity.
Background: Kinase-Glo reads ATP consumption through a luciferase reaction.

Assay [7] has as its system RS4;11 cells. Kind of assay: Proliferation, cell counts by trypan blue staining. The assay is classed as cell-based, human. The procedure:
as §1, §2, §3

Assay [8] deals with Jurkat cells. Kind of assay: Proliferation, cell counts by trypan blue staining. It is filed as cell-based, human. The procedure: as §1, §2, §3
Assay [9] has as its system SEM cells. Kind of assay: Proliferation, cell counts by trypan blue staining. It is filed as cell-based, human. The procedure: as §1, §2, §3
Assay [10] has as its system Molt-4 cells. Kind of assay: Proliferation, cell counts by trypan blue staining. The assay is classed as cell-based, human. The method, then: as §1, §2, §3
[11] abbreviates: 0.5 μM PDA-66, 72 h, vs. DMSO control.
[12] abbreviates: 0.5 μM or more, seeded cells 5×10^5.

Turning to `CC(=O)c1ccc(C2=C(c3c(C)[nH]c4ccccc34)C(=O)N(C)C2=O)cc1` [PDA-66, 3-(4-Acetylphenyl)-1-methyl-4-(2-methyl-1H-indol-3-yl)-1H-pyrrole-2,5-dione], the “cleavage of caspases 3 and 7 and PARP” value in assay [1] is listed as “induced cleavage”. For the same compound, the “metabolic activity compared to control cells treated with DMSO” value in assay [2] turned out to be 33.3±4.4%; in assay [3] (Jurkat, 0.5 μM PDA-66, 72 h, mean±SD) it was 66.7±8%; in assay [4] (SEM, 0.5 μM PDA-66, 72 h, mean±SD), 35.7±8.3%; in assay [5], 35.5±17%. Besides, the IC50 – broadly, the concentration at which inhibition is half-maximal – in assay [3] (Homo sapiens, Jurkat cells, 72 h of incubation) is 1280 nM; in [4] (Homo sapiens, SEM cells, 72 h of incubation), 410 nM. In addition, the GSK3β enzyme activity result in assay [6] (10 μM PDA-66) is “seems to enhance enzyme activity”. In addition, the GSK3β kinase activity entry in assay [6] (0.25-1 μM PDA-66, 30 min at 30° C., vs. DMSO control) is given as “significantly inhibited; also recorded: inhibition of the enzyme”. In addition, in assay [6] (FIG. 1), the “dose response relationship of GSK3β kinase activity” value was “bell shaped dose response relationship”. The inhibition of proliferation entry in [7] (setting [11]), in assay [8] (setting [11]), in assay [9] (setting [11]) and in [10] (setting [11]) was “significant inhibition” each time. Further, the cell numbers entry in assay [7] (setting [12]), in [8] (setting [12]), in assay [9] (setting [12]) and in assay [10] (setting [12]) was “decrease in cell numbers i.e. below the amount of seeded cells” throughout.

The record behind these values is patent US9724331B2, “Use of maleimide derivatives for preventing and treating leukemia” (CENTOGENE AG, priority 2012, dated 2017).
